The term MIC denotes the smallest concentration in the dilution series that meets the test's criterion for growth inhibition.

Holding throughout (assay type): cell-based
Experiment [1] has as its system Staphylococcus aureus ATCC 25923. Description: MIC, broth microdilution (direct antibacterial activity). Particulars: ATCC25923, S. aureus ATCC 25923, compound alone, 18-24 h, read-out: MIC. A digest of the protocol: (§1)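 CLSI M07 broth microdilution in Mueller-Hinton broth, inoculum 5×10^5 CFU/mL, compound at 512 to 0.25 mg/L. Plates incubated 18-24 hours at 35±2 °C before MIC reading.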

Experiment [2] has as its system Bacillus subtilis ATCC 6633. The experiment is described as above. Particulars: ATCC6633, B. subtilis ATCC 6633, compound alone, 18-24 h, read-out: MIC. A digest of the protocol: as §1
The subject of experiment [3] is polymyxin E1-resistant Acinetobacter baumannii (strain N50) clinical isolate. The following applies: A. baumannii N50 (colistin-resistant); compound + polymyxin E1. On the procedure:
Growth inhibition or killing of bacteria was investigated using conventional methods widely described in the scientific literature. Parameters such as the Minimum Inhibitory Concentration (MIC) were determined as described in Clinical Laboratory Standard Institute (CLSI) document M07 “Methods for Dilution Antimicrobial Susceptibility Tests for Bacteria That Grow Aerobically, 11th Edition” (2018). Synergistic activity of the compounds described in the present specification were determined by measuring the variation of the MIC's compound in the absence and presence of a sub-inhibitory concentration of a suitable antibacterial agent, such as polymyxin E1. Furthermore, the Fractional Inhibitory Concentrations (FICs) were measured using a chequerboard analysis to determine the average FIC index (FICI), whose value is known to characterize the interaction between two compounds and/or drugs (≤0.5, synergistic interaction; >0.5 and <2, no interaction, additive effect; ≥2, antagonistic interaction). Furthermore, the selectivity of the compounds was investigated by measuring their cytotoxic effect on mammalian cell lines (e.g. HeLa cells).
“Chequerboard” method was used to further investigate the synergistic activity of pyrazolo[4,3-b]pyridin-6-carboxamides when this compounds are combined with polymyxin E1. […]

For the compound `CCCCn1c(=O)c(C(=O)NC23CC4CC(CC(C4)C2)C3)c(O)c2nn(C)cc21` [Ib, N-(Adamantan-1-yl)-4-(1-butyl)-4,5-dihydro-7-hydroxy-2-methyl-5-oxo-2H-pyrazolo[4,3-b]pyridin-6-carboxamide], the values for the MIC in experiment [1] and in experiment [2] were 64 µg/mL and 32 µg/mL, respectively. In addition, in experiment [3], the “Average FIC index” value was determined as 0.30.

These data come from patent US12358919B2, “Antibacterial compounds” (Universita' degli Studi di Siena, priority 2019, dated 2025).
